Reference: patent US8741962B2, “Process for preparation of Rasagiline and salts thereof” (USV Limited, priority 2009, dated 2014)
Values joined by “and” are separate entries in the source; they are usually repeats but may differ in a detail not shown here. Equal entries are not always repeated. Where two headings read alike, the source gives them in different places.

What was measured:
[1] = Excerpt: The present inventors have conducted extensive research work for solving the problem of agglomerization of micronized Rasagiline or salt thereof.
[2] = wet method
[3] = Particle size determination by dry method (Malvern Mastersizer 2000, Scirocco 2000 dry unit); settings: for d10 / d50 / d90: not micronized, as obtained by the process
Remark: listed apart in the source
[4] = Pack-1 (Glass bottle), after one month
[5] = Pack-1 (Glass bottle), micronized sample (initial)
[6] = Pack-2 (PET bottle), after one month
[7] = Pack-2 (PET bottle), micronized sample (initial)
[8] = room temperature, glass bottle or PET bottle, about one month
[9] = after micronization, dry method
[10] = before micronization, dry method

C#CCN[C@@H]1CCc2ccccc21.CS(=O)(=O)O [R(+)-Rasagiline mesylate, (1R)-2,3-dihydro-N-2-propynyl-1H-indane-1-amine mesylate]
D10 [1, 4]: 1.70 | D50 [1, 4]: 3.66 | D90 [1, 4]: 7.55 | D10 [1, 5]: 1.40 | D50 [1, 5]: 3.33 | D90 [1, 5]: 7.88 | D10 [1, 6]: 1.41 | D50 [1, 6]: 2.97 | D90 [1, 6]: 5.64 | D10 [1, 7]: 1.43 | D50 [1, 7]: 2.90 | D90 [1, 7]: 5.74 | Agglomeration of the particles on storage [1, 8]: no agglomeration of the particles was observed | Change in XRPD pattern and particle size on storage [1, 8]: no change in XRPD pattern and particle size | Particle Size Distribution D90 ([2]; after micronization): 796.35 micron and 1007.18 micron | Particle Size Distribution D50 ([2]; before micronization): 141.23 micron and 174.70 micron | Particle Size Distribution D90 ([2]; before micronization): 590.45 micron and 832.14 micron | Particle Size Distribution D10 [3, 9]: 1.44 micron and 1.43 micron | Particle Size Distribution D50 [3, 9]: 3.00 micron and 2.90 micron | Particle Size Distribution D90 [3, 9]: 5.94 micron and 5.74 micron | Particle Size Distribution D10 [3, 10]: 3.65 micron and 3.18 micron | Particle Size Distribution D50 [3, 10]: 15.27 micron and 13.33 micron | Particle Size Distribution D90 [3, 10]: 57.38 micron and 47.11 micron | particle size of 50% of particles ([3]; micronized): less than or equal to 4 μ | particle size of 90% of particles ([3]; micronized): less than or equal to 9 μ | d10 [3]: 2-9 μ | d50 [3]: 10-20 μ | d90 [3]: 40-80 μ

C#CCN[C@@H]1CCc2ccccc21.Cl [R-(+)-Rasagiline hydrochloride, (1R)-2,3-dihydro-N-2-propynyl-1H-indane-1-amine hydrochloride]
size of 90% of the total amount by volume of particles (micronized): less than 20 microns | size of 90% particles (not micronized): less than 500 microns

Br.C#CCN[C@@H]1CCc2ccccc21 [R(+)-Rasagiline hydrobromide, (1R)-2,3-dihydro-N-2-propynyl-1H-indane-1-amine hydrobromide]
size of 90% of the total amount by volume of particles ([3]; micronized, dry method): less than 20 microns | d10 [3]: 2-9 μ | d50 [3]: 10-20 μ | d90 [3]: 40-80 μ
